Laboratory results as given in US11427601B1, “Inhibitors of KEAP1-Nrf2 protein-protein interaction” (Janssen Pharmaceutica NV, priority 2018, dated 2022).

These molecules were tested against Kelch domain of human KEAP 1 (321-624 aa) (Homo sapiens (Human), UniProt Q14145) (assay: KEAP1 KELCH ThermoFluor binding assay). Details: KEAP Kelch 1.1 μM, pH 7.0, average of results obtained, read-out: Tf Kd.
Sequence of Kelch domain of human KEAP 1 (321-624 aa) (Q14145 321-624): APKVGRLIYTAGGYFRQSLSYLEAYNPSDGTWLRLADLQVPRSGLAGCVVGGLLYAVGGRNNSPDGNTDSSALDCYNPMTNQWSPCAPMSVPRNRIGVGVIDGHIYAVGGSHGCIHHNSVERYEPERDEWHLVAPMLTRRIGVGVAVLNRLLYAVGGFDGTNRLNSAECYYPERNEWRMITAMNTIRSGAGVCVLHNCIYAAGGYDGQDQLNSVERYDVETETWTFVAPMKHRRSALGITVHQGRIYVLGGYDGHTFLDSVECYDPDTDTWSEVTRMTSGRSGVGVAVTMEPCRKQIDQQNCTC
Description: The shift in the melting point described as a ΔTm is proportional to the concentration and affinity of the ligand. The compound potency may be compared as a rank order of either ΔTm values at a single compound concentration or in terms of KD values, estimated from concentration response curves.
The protein was expressed in E. coli with 6His tag that was cleaved prior to receipt for use.
Protein (KEAP Kelch) and compound solutions were dispensed into black 384-well polypropylene PCR microplates (Abgene) and overlayed with silicone oil (1 μL, Fluka, type DC 200) to prevent evaporation.
Work on `CCn1nnc2c(C)c(C(CC(=O)O)c3ccc(C)c(CN4CC5(COC5)Oc5ccccc5S4(=O)=O)n3)ccc21` (racemic) [Example 237, (R/S)-3-(6-((1,1-Dioxidospiro[benzo[b][1,4,5]oxathiazepine-4,3′-oxetan]-2(3H)-yl)methyl)-5-methylpyridin-2-yl)-3-(1-ethyl-4-methyl-1H-benzo[d][1,2,3]triazol-5-yl)propanoic acid] yielded a Kd of 1.5 nM.
With `Cc1ccc(C(c2ccn3c(C(F)(F)F)nnc3c2C)C(C)C(=O)O)cc1CN1C[C@@H]2CCCCN2c2ncccc2S1(=O)=O` (stereo in doubt) [Example 129, 3-(3-(((*S)-5,5-Dioxido-7,7a,8,9,10,11-hexahydro-6H-dipyrido[2,1-d:2′,3′-f][1,2,5]thiadiazepin-6-yl)methyl)-4-methylphenyl)-2-methyl-3-(8-methyl-3-(trifluoromethyl)-[1,2,4]triazolo[4,3-a]pyridine-7-yl)propanoic acid] the Kd was under 1 nM.

The molecules below were run on NrF2 activation of the ARE (Glo-Response ARE-luc2P HEK293 cell line) (assay: ARE luciferase reporter assay in HEK293 cells). Details: 24 hours, average of results obtained.
Type: cell-based
Protocol: The ARE assay utilizes a luciferase reporter cell line where the signal is proportional to NrF2 activation of the ARE. The cell line is commercially available from Promega and was prepared by stably transfecting HEK293 cells with a vector (pGL4.11) which contains the ARE response element upstream of a minimal promoter. The promoter drives expression of luc2 firefly luciferase gene. Upon disruption of KEAP1-Nrf2 binding by compound, Nrf2 translocates into the nucleus where it binds to the ARE and activates transcription of luciferase.
The materials used in this ARE assay are as follows: Glo-Response ARE-luc2P HEK293 cell line and One-Glo Luciferase Assay System were purchased from Promega (Madison, Wis.). Dulbecco's Modified Eagle medium ((DMEM), low glucose, GlutaMAX, pyruvate), fetal bovine serum (certified, heat inactivated), hygromycin B, Dulbecco's phosphate-buffered saline were purchased from Life Technologies (Grand Island, N.Y.). Penicillin, streptomycin solution (100×) and 0.05% trypsin-EDTA were purchased from Corning (Manassas, Va.). DMSO was purchased from EMD Millipore.
The ARE assay protocol is as follows: cells were maintained in growth medium (DMEM +10% FBS, 200 μg/mL hygromycin B, p-s) between 20-90% confluency by splitting twice per week. One day before the assay, cells were trypsinized, counted to determine viable cell count, and re-suspended in assay medium (DMEM +10% FBS, p-s) at 250,000 cells/mL. […] 100% DMSO was used as the low control. A 11-point dose series of the control compound was included on every plate. Compounds were spotted to an intermediate plate (Greiner # 781280 V-bottom 384 well plate) using the Echo acoustic dispenser (Labscyte San Jose, Calif.). Spot size was 240 nL.
On the day of the assay, 60 mL per well of assay medium was added to the pre-spotted plate to make 2X compound stocks using the Combi (Thermo Waltham, Mass.). Compound and medium were mixed on the Janus and 20 mL of 2× compound stock was added to the cell plate which already contained 20 mL of assay medium from cell plating. […] The plates were returned to the tissue culture incubator for 24 hours.
The next day, luciferase activity was measured according to the manufacturer's protocol for One-Glo luciferase reagent. The plates were removed from the incubator and allowed to equilibrate to room temperature for 30 min. Forty microliters of One-Glo reagent (equilibrated to room temperature) was added per well using the Combi. The plates were mixed on an orbital shaker for 3 min. Luminescence was read on the BMG Pherastar multiplate reader (Cary, N.C.) using the luminescence protocol (1 sec interval).
The dose-response data were analyzed in Genedata Screener using 4PL nonlinear regression model. Raw luminescence counts as well as normalized values were used for data analysis.
In the case of `Cc1ccc([C@H](CC(=O)O)c2ccc3c(nnn3CC3CC3)c2C(F)F)cc1CN1C[C@@H]2CCCCN2c2ncccc2S1(=O)=O` (relative stereo) [Example 172, (*S)-3-(1-(Cyclopropylmethyl)-4-(difluoromethyl)-1H-benzo[d][1,2,3]triazol-5-yl)-3-(3-(((*S)-5,5-dioxido-7,7a,8,9,10,11-hexahydro-6H-dipyrido[2,1-d:2′,3′-f][1,2,5]thiadiazepin-6-yl)methyl)-4-methylphenyl)propanoic acid], the EC50 is reported as 19 nM.
`CCc1nnc2c(C)c([C@H](CC(=O)O)c3ccc(C)c(CN4C[C@H]5CCCN5c5ncccc5S4(=O)=O)c3)ccn12` (relative stereo) [Example 283, (*R)-3-(3-(((R)-5,5-dioxido-7a,8,9,10-tetrahydropyrido[2,3-f]pyrrolo[2,1-d][1,2,5]thiadiazepin-6(7H)-yl)methyl)-4-methylphenyl)-3-(3-ethyl-8-methyl-[1,2,4]triazolo[4,3-a]pyridin-7-yl)propanoic acid] was tested, and the EC50 was 4170 nM.
`Cc1cnc2c(c1)S(=O)(=O)N(Cc1cc([C@H](CC(=O)O)c3ccn4c(C(F)(F)F)nnc4c3C)ccc1C)C[C@@H]1CCCCN21` (relative stereo) [Example 307, (*S)-3-(4-methyl-3-(((*S)-3-methyl-5,5-dioxido-7,7a,8,9,10,11-hexahydro-6H-dipyrido[2,1-d:2′,3′-f][1,2,5]thiadiazepin-6-yl)methyl)phenyl)-3-(8-methyl-3-(trifluoromethyl)-[1,2,4]triazolo[4,3-a]pyridin-7-yl)propanoic acid] gave an EC50 of 2 nM.
Work on `Cc1ccc([C@H](c2ccc3c(nnn3C3CC3)c2C)C(C)(C)C(=O)O)cc1CN1CC2(CC2)Oc2nc(N[C@@H](C)CN3CCCCC3)c(C)cc2S1(=O)=O` (relative stereo) [Example 660, (*R)-3-(1-Cyclopropyl-4-methyl-1H-benzo[d][1,2,3]triazol-5-yl)-2,2-dimethyl-3-(4-methyl-3-((8′-methyl-1′,1′-dioxido-7′-(((S)-1-(piperidin-1-yl)propan-2-yl)amino)spiro[cyclopropane-1,4′-pyrido[2,3-b][1,4,5]oxathiazepin]-2′(3′H)-yl)methyl)phenyl)propanoic acid] yielded an EC50 of 235 nM.
In the case of `Cc1ccc([C@H](CC(=O)O)c2ccn3c(C(F)(F)F)nnc3c2C)cc1CN1CC2(COC2)Oc2ccc(F)cc2S1(=O)=O` (single isomer, unassigned) [Example 99], the EC50 is reported as 5.8 nM.
Work on `Cc1ccc([C@@H](c2ccn3c(C(F)(F)F)nnc3c2C)C(C)(C)C(=O)O)cc1CN1CC2(CC2)Oc2nc(OCCN3CCCC3)ccc2S1(=O)=O` (single isomer, unassigned) [Example 598, (*S)-3-(3-((1′,1′-dioxido-7′-(2-(pyrrolidine-1-yl)ethoxy)spiro[cyclopropane-1,4′-pyrido[2,3-b][1,4,5]oxathiazepin]-2′(3′H)-yl)methyl)-4-methylphenyl)-2,2-dimethyl-3-(8-methyl-3-(trifluoromethyl)-[1,2,4]triazolo[4,3-a]pyridine-7-yl)propanoic acid] yielded an EC50 of 8.85 nM.
“(*S)-3-(3-((7′-(3-((2-(2-aminoethoxy)ethyl)amino)-3-oxopropyl)-1′,1′-dioxido-2,3,5,6-tetrahydrospiro[pyran-4,4′-pyrido[2,3-b][1,4,5]oxathiazepin]-2′(3′H)-yl)methyl)-4-methylphenyl)-2,2-dimethyl-3-(8-methyl-3-(trifluoromethyl)-[1,2,4]triazolo[4,3-a]pyridin-7-yl)propanoic acid [Example 345]” showed an EC50 of over 20 nM.

Same assay, conditions: Homo sapiens, HEK293, 24 h, average of results obtained
With `Cc1ccc([C@H](c2cc(C)n3c(C(F)(F)F)nnc3c2C)C(C)C(=O)O)cc1CN1C[C@@H]2CCCCN2c2ncccc2S1(=O)=O` (relative stereo) [Example 133, (3*R)-3-(5,8-Dimethyl-3)-(trifluoromethyl)-[1,2,4-triazolo[4,3-a]pyridine-7-yl)-3-(3-((*S)-5,5-dioxido-7,7a,8,9,10,11-hexahydro-6H-dipyrido[2,1-d:2′,3′-f][1,2,5]thiadiazepin-6-yl)methyl)-4-methylphenyl)-2-methylpropanoic acid] the EC50 was 2 nM.
`Cc1ccc([C@H](CC(=O)O)c2cc(OC(F)F)c3c(c2)nnn3C)cc1CN1C[C@H]2CCCN2c2ncccc2S1(=O)=O` (single isomer, unassigned) [Example 247, (*S)-3-(7-(Difluoromethoxy)-1-methyl-1H-benzo[d][1,2,3]triazol-5-yl)-3-(3-(((R)-5,5-dioxido-7a,8,9,10-tetrahydropyrido[2,3-f]pyrrolo[2,1-d][1,2,5]thiadiazepin-6(7H)-yl)methyl)-4-methylphenyl)propanoic acid] gave an EC50 of 225 nM.
For `Cc1cnc2c(c1)S(=O)(=O)N(Cc1cc([C@H](c3ccn4c(C(F)(F)F)nnc4c3C)C(C)(C)C(=O)O)cnc1C)CC1(CC1)O2` (single isomer, unassigned) [Example 573, (*S)-2,2-Dimethyl-3-(8-methyl-3-(trifluoromethyl)-[1,2,4]triazolo[4,3-a]pyridin-7-yl)-3-(6-methyl-5-((8′-methyl-1′,1′-dioxidospiro[cyclopropane-1,4′-pyrido[2,3-b][1,4,5]oxathiazepin]-2′(3′H)-yl)methyl)pyridin-3-yl)propanoic acid], the EC50 was 321 nM.
`Cc1cnc2c(c1)S(=O)(=O)N(Cc1cc(C(c3ccn4c(C(F)(F)F)nnc4c3C)C(C)(C)C(=O)O)cnc1C)CC1(CC1)O2` (single isomer, unassigned) [Example 574, (*R)-2,2-Dimethyl-3-(8-methyl-3-(trifluoromethyl)-[1,2,4]triazolo[4,3-a]pyridin-7-yl)-3-(6-methyl-5-((8′-methyl-1′,1′-dioxidospiro[cyclopropane-1,4′-pyrido[2,3-b][1,4,5]oxathiazepin]-2′(3′H)-yl)methyl)pyridin-3-yl)propanoic acid] gave an EC50 of 14600 nM.
`Cc1ccc(C(c2ccn3c(C(F)(F)F)nnc3c2C)C(C)C(=O)O)cc1CN1C[C@@H]2CCCCN2c2ncccc2S1(=O)=O` (stereo in doubt) [Example 129, 3-(3-(((*S)-5,5-Dioxido-7,7a,8,9,10,11-hexahydro-6H-dipyrido[2,1-d:2′,3′-f][1,2,5]thiadiazepin-6-yl)methyl)-4-methylphenyl)-2-methyl-3-(8-methyl-3-(trifluoromethyl)-[1,2,4]triazolo[4,3-a]pyridine-7-yl)propanoic acid] gave an EC50 of 6.8 nM.
